Assay [1] concerns Bacillus anthracis. Kind of assay: Antibacterial activity against Bacillus anthracis infected in Fischer 344 rat assessed as enhancement of survival rate against lethal toxin-mediated toxicity at 0.25 mg, iv coadministered along with 10 ug bacterial lethal factor measured up to 8 hrs. Format: functional, organism-based.
The test system of assay [2] is Bacillus anthracis. Kind of assay: Antibacterial activity against Bacillus anthracis infected in Fischer 344 rat assessed as time to death at 0.25 mg, iv coadministered along with 10 ug bacterial lethal factor up to 8 hrs. Format: functional.
In another assay the target is T1, Lethal factor (Bacillus anthracis, UniProt P15917).
T1 sequence (P15917 whole entry): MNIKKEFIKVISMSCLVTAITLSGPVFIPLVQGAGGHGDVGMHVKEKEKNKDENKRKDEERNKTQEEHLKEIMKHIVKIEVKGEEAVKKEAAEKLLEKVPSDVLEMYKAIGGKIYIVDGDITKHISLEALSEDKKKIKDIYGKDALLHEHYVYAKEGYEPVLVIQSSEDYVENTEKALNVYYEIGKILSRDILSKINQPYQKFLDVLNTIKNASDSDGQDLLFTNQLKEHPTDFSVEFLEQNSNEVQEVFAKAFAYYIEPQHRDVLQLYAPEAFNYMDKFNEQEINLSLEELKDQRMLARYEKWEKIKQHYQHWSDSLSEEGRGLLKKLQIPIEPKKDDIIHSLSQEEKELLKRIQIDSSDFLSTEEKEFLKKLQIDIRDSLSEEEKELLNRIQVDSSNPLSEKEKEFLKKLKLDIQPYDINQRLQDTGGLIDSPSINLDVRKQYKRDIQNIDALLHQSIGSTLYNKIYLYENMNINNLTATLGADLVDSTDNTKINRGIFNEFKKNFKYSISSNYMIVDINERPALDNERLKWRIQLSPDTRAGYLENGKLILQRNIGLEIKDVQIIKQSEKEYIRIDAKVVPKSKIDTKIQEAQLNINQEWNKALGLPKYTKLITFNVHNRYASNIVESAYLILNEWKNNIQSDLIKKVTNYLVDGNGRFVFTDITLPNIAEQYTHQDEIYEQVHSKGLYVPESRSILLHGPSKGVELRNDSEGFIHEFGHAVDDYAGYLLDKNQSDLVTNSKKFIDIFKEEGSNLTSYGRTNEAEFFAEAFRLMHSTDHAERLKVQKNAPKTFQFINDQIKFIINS
Nature of the assay: Inhibition of Bacillus anthracis lethal factor.

Assay [3] has as its system Bacillus anthracis. Kind of assay: Antibacterial activity against Bacillus anthracis infected in Fischer 344 rat assessed as enhancement of survival rate against lethal toxin-mediated toxicity at 1.25 mg, iv administered 30 mins prior to 10 ug bacterial lethal factor infusion measured up to 8 hrs. The format is functional, organism-based.
The subject of assay [4] is Bacillus anthracis. Kind of assay: Antibacterial activity against Bacillus anthracis infected in Fischer 344 rat assessed as enhancement of survival rate against lethal toxin-mediated toxicity at 1.25 mg, iv coadministered along with 10 ug bacterial lethal factor measured up to 8 hrs. Format: functional, organism-based.
Assay [5] has as its system Bacillus anthracis. Kind of assay: Antibacterial activity against Bacillus anthracis infected in Fischer 344 rat assessed as time to death at 0.017 mg, iv coadministered along with 10 ug bacterial lethal factor up to 8 hrs. The format is functional.
Assay [6] has as its system Bacillus anthracis. Kind of assay: Antibacterial activity against Bacillus anthracis infected in Fischer 344 rat assessed as enhancement of survival rate against lethal toxin-mediated toxicity at 0.085 mg, iv coadministered along with 10 ug bacterial lethal factor measured up to 8 hrs. The format is functional, organism-based.
The subject of assay [7] is Bacillus anthracis. Kind of assay: Antibacterial activity against Bacillus anthracis Sterne infected in DBA/2 mouse at 2.5 mg/kg, iv QD for 10 days measured post last dose. Format: functional, organism-based. Details: dose 2.5 mg/kg.
For assay [8], the system named is Bacillus anthracis. Kind of assay: Antibacterial activity against Bacillus anthracis Sterne infected in DBA/2 mouse assessed survival rate at 2.5 mg/kg, iv QD for 10 days measured post last dose in presence of 50 mg/kg/day, ip ciprofloxacin. The format is functional.

The source made the active and inactive calls. No cut-off for these calls is given here.

Take `NCCCSC[C@H]1O[C@H]2O[C@H]3[C@H](O)[C@@H](O)[C@H](O[C@H]4[C@H](O)[C@@H](O)[C@H](O[C@H]5[C@H](O)[C@@H](O)[C@H](O[C@H]6[C@H](O)[C@@H](O)[C@H](O[C@H]7[C@H](O)[C@@H](O)[C@H](O[C@H]8[C@H](O)[C@@H](O)[C@H](O[C@H]1[C@H](O)[C@H]2O)O[C@@H]8CSCCCN)O[C@@H]7CSCCCN)O[C@@H]6CSCCCN)O[C@@H]5CSCCCN)O[C@@H]4CSCCCN)O[C@@H]3CSCCCN`: the result with Bacillus anthracis [1] was inactive. In the assay on Bacillus anthracis [2], the Time came to 130 min. The compound further registered an IC50 at Lethal factor of 2900 nM. Also, the result in the assay with Bacillus anthracis [3] and in the assay on Bacillus anthracis [4] was Active.
Take `NCc1ccc(CSC[C@H]2O[C@H]3O[C@H]4[C@H](O)[C@@H](O)[C@H](O[C@H]5[C@H](O)[C@@H](O)[C@H](O[C@H]6[C@H](O)[C@@H](O)[C@H](O[C@H]7[C@H](O)[C@@H](O)[C@H](O[C@H]8[C@H](O)[C@@H](O)[C@H](O[C@H]9[C@H](O)[C@@H](O)[C@H](O[C@H]2[C@H](O)[C@H]3O)O[C@@H]9CSCc2ccc(CN)cc2)O[C@@H]8CSCc2ccc(CN)cc2)O[C@@H]7CSCc2ccc(CN)cc2)O[C@@H]6CSCc2ccc(CN)cc2)O[C@@H]5CSCc2ccc(CN)cc2)O[C@@H]4CSCc2ccc(CN)cc2)cc1`: the outcome in the assay on Bacillus anthracis [1], with Bacillus anthracis [6] and in the assay with Bacillus anthracis [3] was Active. Further, the Time in the assay with Bacillus anthracis [5] was found to be 382 min. On Lethal factor, this compound registered an IC50 of 700 nM.
As for `NCCCCCCCCSC[C@H]1O[C@H]2O[C@H]3[C@H](O)[C@@H](O)[C@H](O[C@H]4[C@H](O)[C@@H](O)[C@H](O[C@H]5[C@H](O)[C@@H](O)[C@H](O[C@H]6[C@H](O)[C@@H](O)[C@H](O[C@H]7[C@H](O)[C@@H](O)[C@H](O[C@H]8[C@H](O)[C@@H](O)[C@H](O[C@H]1[C@H](O)[C@H]2O)O[C@@H]8CSCCCCCCCCN)O[C@@H]7CSCCCCCCCCN)O[C@@H]6CSCCCCCCCCN)O[C@@H]5CSCCCCCCCCN)O[C@@H]4CSCCCCCCCCN)O[C@@H]3CSCCCCCCCCN`, the outcome with Bacillus anthracis [1], in the assay on Bacillus anthracis [6] and with Bacillus anthracis [3] was Active. Moreover, in the assay on Bacillus anthracis [5], the Time was 623 min. On Lethal factor, this compound gave an IC50 of 300 nM.
Consider `NCc1cccc(CSC[C@H]2O[C@H]3O[C@H]4[C@H](O)[C@@H](O)[C@H](O[C@H]5[C@H](O)[C@@H](O)[C@H](O[C@H]6[C@H](O)[C@@H](O)[C@H](O[C@H]7[C@H](O)[C@@H](O)[C@H](O[C@H]8[C@H](O)[C@@H](O)[C@H](O[C@H]9[C@H](O)[C@@H](O)[C@H](O[C@H]2[C@H](O)[C@H]3O)O[C@@H]9CSCc2cccc(CN)c2)O[C@@H]8CSCc2cccc(CN)c2)O[C@@H]7CSCc2cccc(CN)c2)O[C@@H]6CSCc2cccc(CN)c2)O[C@@H]5CSCc2cccc(CN)c2)O[C@@H]4CSCc2cccc(CN)c2)c1`, for which the outcome in the assay with Bacillus anthracis [1], with Bacillus anthracis [6], in the assay with Bacillus anthracis [7], in the assay with Bacillus anthracis [3] and in the assay on Bacillus anthracis [4] was Active. Also, the Time in the assay on Bacillus anthracis [5] was 285 min. Further, 500 nM corresponded to half-maximal inhibition at Lethal factor (IC50). For the same compound, the Activity result in the assay on Bacillus anthracis [8] is recorded as “<=90%”.

These data come from ChEMBL document CHEMBL1255363, “In vivo efficacy of beta-cyclodextrin derivatives against anthrax lethal toxin” (Antimicrob Agents Chemother, 2008).
